Data: the supplement of paper PMC11061612

Columns and labels:
[1] = system: EJM (Plasma Cell Myeloma); assay: Bliss excess, mean over the matrix (fraction); higher = more synergy
Method in brief: (§1)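 Cell lines grown in DMEM/F12 or RPMI with 10% FBS were plated in 1536-well plates and held 24 hours at 37°C, 5% CO2 before 72 hours of exposure to two-drug dose matrices, with DMSO typically at 0.2%. CellTiter-Glo 2.0 luminescence gave viability, which was converted to inhibition. Vehicle wells were set to 0 and blank wells to 1. Combination Emax is the second-highest inhibition in the matrix, and Bliss excess is the observed combination effect minus the expected EA + EB − EA·EB, where EA and EB are the single-agent effects.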

[2] = system: KOPN-8 (B-Lymphoblastic Leukemia); assay: as above
Method in brief: as §1

[3] = system: ALL-SIL (T-Lymphoblastic Leukemia); assay: as above
Method in brief: as §1

[4] = system: OACM5-1 (Esophageal Adenocarcinoma); assay: as above
Method in brief: as §1

[5] = system: HCC1937 (Breast Carcinoma); assay: as above
Method in brief: as §1

[6] = system: LC-1-sq (Squamous Cell Lung Carcinoma); assay: as above
Method in brief: as §1

[7] = system: NCI-H650 (Lung Adenocarcinoma); assay: as above
Method in brief: as §1

[8] = system: NCI-H1838 (Lung Adenocarcinoma); assay: as above
Method in brief: as §1

[9] = system: HCC2998 (Colorectal Carcinoma); assay: as above
Method in brief: as §1

EW-1 (Ewing's Sarcoma) [10] = assay: as above
Method in brief: as §1

[11] = system: NCI-H2122 (Lung Adenocarcinoma); assay: as above
Method in brief: as §1

[12] = system: HCC1500 (Breast Carcinoma); assay: as above
Method in brief: as §1

Hey (Ovarian Carcinoma) [13] = assay: as above
Method in brief: as §1

[14] = system: NCI-H1092 (Small Cell Lung Carcinoma); assay: as above
Method in brief: as §1

[15] = system: G-401 (Other Solid Carcinomas); assay: as above
Method in brief: as §1

[16] = system: CADO-ES1 (Ewing's Sarcoma); assay: as above
Method in brief: as §1

[17] = system: EJM (Plasma Cell Myeloma); assay: combination Emax (second highest fraction inhibited in the dose matrix, 72 h); higher = more inhibition; extreme values may be limits of the assay
Method in brief: as §1

[18] = system: KOPN-8 (B-Lymphoblastic Leukemia); assay: as above
Method in brief: as §1

[19] = system: ALL-SIL (T-Lymphoblastic Leukemia); assay: as above
Method in brief: as §1

[20] = system: OACM5-1 (Esophageal Adenocarcinoma); assay: as above
Method in brief: as §1

[21] = system: HCC1937 (Breast Carcinoma); assay: as above
Method in brief: as §1

[22] = system: LC-1-sq (Squamous Cell Lung Carcinoma); assay: as above
Method in brief: as §1

[23] = system: NCI-H650 (Lung Adenocarcinoma); assay: as above
Method in brief: as §1

[24] = system: NCI-H1838 (Lung Adenocarcinoma); assay: as above
Method in brief: as §1

[25] = system: HCC2998 (Colorectal Carcinoma); assay: as above
Method in brief: as §1

EW-1 (Ewing's Sarcoma) [26] = assay: as above
Method in brief: as §1

[27] = system: NCI-H2122 (Lung Adenocarcinoma); assay: as above
Method in brief: as §1

[28] = system: HCC1500 (Breast Carcinoma); assay: as above
Method in brief: as §1

Hey (Ovarian Carcinoma) [29] = assay: as above
Method in brief: as §1

[30] = system: NCI-H1092 (Small Cell Lung Carcinoma); assay: as above
Method in brief: as §1

[31] = system: G-401 (Other Solid Carcinomas); assay: as above
Method in brief: as §1

[32] = system: CADO-ES1 (Ewing's Sarcoma); assay: as above
Method in brief: as §1
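For Bliss excess, mean over the matrix in this document: after 72 h of two-drug dosing.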

Row | Structure (SMILES) | Bliss excess [1] | Bliss excess [2] | Bliss excess [3] | Bliss excess [4] | Bliss excess [5] | Bliss excess [6] | Bliss excess [7] | Bliss excess [8] | Bliss excess [9] | Bliss excess (EW-1 (Ewing's Sarcoma) [10]) | Bliss excess [11] | Bliss excess [12] | Bliss excess (Hey (Ovarian Carcinoma) [13]) | Bliss excess [14] | Bliss excess [15] | Bliss excess [16] | combination Emax [17] | combination Emax [18] | combination Emax [19] | combination Emax [20] | combination Emax [21] | combination Emax [22] | combination Emax [23] | combination Emax [24] | combination Emax [25] | combination Emax (EW-1 (Ewing's Sarcoma) [26]) | combination Emax [27] | combination Emax [28] | combination Emax (Hey (Ovarian Carcinoma) [29]) | combination Emax [30] | combination Emax [31] | combination Emax [32]
1 | COc1nnc2ccc(N3CCC(c4ccc(OCCN5CCN(C)C(=O)[C@H]5C)cc4)CC3)nn12 [AZD5153] + CN(CC[C@H](CSC1=CC=CC=C1)NC2=C(C=C(C=C2)S(=O)(=O)NC(=O)C3=CC=C(C=C3)N4CCC(CC4)[C@H](C5=CC=CC=C5C6=CC=C(C=C6)Cl)O)S(=O)(=O)C(F)(F)F)CCO [AZD4320] (first compound max 1 µM, 7x7, partner max 1 µM) | 0.106 | 0.0349 | 0.0324 | 0.0552 | 0.0178 | 0.0178 | 0.0209 | -0.0272 | -0.0002 | 0.0591 | -0.0537 | -0.0002 | 0.0787 | 0.0381 | -0.026 | -0.0641 | 0.824 | 1 | 1 | 0.698 | 0.396 | 0.715 | 0.512 | 0.194 | 0.967 | 0.718 | 0.759 | 0.983 | 0.562 | 0.924 | 0.806 | 0.618
2 | CC(=O)c1c(C)c2cnc(Nc3ccc(N4CCNCC4)cn3)nc2n(C2CCCC2)c1=O [Palbociclib] + CN(CC[C@H](CSC1=CC=CC=C1)NC2=C(C=C(C=C2)S(=O)(=O)NC(=O)C3=CC=C(C=C3)N4CCC(CC4)[C@H](C5=CC=CC=C5C6=CC=C(C=C6)Cl)O)S(=O)(=O)C(F)(F)F)CCO [AZD4320] (first compound max 10 µM, 7x7, partner max 1 µM) | -0.0016 | 0.0277 | -0.0064 | 0.0021 | -0.0676 | -0.0469 | -0.088 | -0.0748 | -0.0452 | -0.0009 | -0.0482 | -0.0551 | -0.105 | -0.0197 | 0.0091 | -0.149 | 0.56 | 1 | 1 | 0.61 | 0.504 | 0.224 | 0.172 | 0.348 | 0.934 | 0.884 | 0.684 | 0.985 | 0.357 | 0.915 | 0.974 | 0.76
3 | C[C@@H](c1ccc2nccn2c1)n1nnc2ncc(-c3cnn(C)c3)nc21 [Savolitinib] + CN(CC[C@H](CSC1=CC=CC=C1)NC2=C(C=C(C=C2)S(=O)(=O)NC(=O)C3=CC=C(C=C3)N4CCC(CC4)[C@H](C5=CC=CC=C5C6=CC=C(C=C6)Cl)O)S(=O)(=O)C(F)(F)F)CCO [AZD4320] (first compound max 1 µM, 7x7, partner max 1 µM) | 0.0389 | 0.111 | -0.0135 | -0.0435 | -0.0666 | -0.059 | -0.0723 | -0.01 | -0.0901 | -0.0384 | -0.0092 | -0.0104 | -0.0466 | -0.0878 | -0.0486 | 0.0075 | 0.278 | 0.967 | 1 | 0.216 | 0.319 | 0.309 | 0.181 | 0.205 | 0.511 | 0.574 | 0.252 | 0.998 | 0.125 | 0.857 | 0.276 | 0.706
